Results on seven compounds are retold here after US20090227563A1, “HERBICIDAL COMPOSITIONS HAVING IMPROVED EFFECT” (Bayer CropScience AG, priority 2005, published 2009).

What all share (assay): Glasshouse trial on activity boost, post-emergence spraying, visual rating
What all share (format): in vivo

In test [1] the test system is Setaria viridis (SETVI). The protocol: (§1) Seeds of monocot and dicot weeds and crop plants are sown in sandy loam soil in wood fibre pots or in plastic pots, and are covered with soil and cultivated under good growth conditions in the glasshouse and also, during the vegetation period, outdoors outside the glasshouse. 2-3 weeks after sowing, the trial plants are treated at the one- to three-leaf stage. The test compounds, formulated as wettable powders (WP) or liquids (EC), are applied by spraying to the plants and the soil surface in various doses, with a water application rate of 300 l/ha (converted) and with the addition of penetrants (0.2% to 0.4%) and where appropriate an ammonium salt. After the trial plants had stood in the glasshouse for about 3 to 4 weeks under optimum growth conditions, the activity of the products was rated visually in comparison to untreated controls (activity in %, i.e. 0%=no activity or as control, 100%=all plants died).
(§2) For rapeseed oil methyl ester (RME) the following tables specify concentration in % a.i. by volume for ammonium sulphate (AMS) in g/l in the spray liquor.
(§3) ALOMY=Alopecurus myosuroides AVEFA=Avena fatua LOLMU=Lolium multiflorum SETVI=Setaria viridis

Test [2] deals with Avena fatua (AVEFA). As to the method:
as §1, §2
(§4) ALOMY=Alopecurus myosuroides AVEFA=Avena fatua LOLMU=Lolium multiflorum LOLRI=Lolium rigidum
as §3
(§5) ALOMY=Alopecurus myosuroides AVEFA=Avena fatua LOLMU=Lolium multiflorum SETVI=Setaria viridis BROER=Bromus erectus

In test [3] the test system is Alopecurus myosuroides (ALOMY). As to the method:
as §1, §2, §4, §3, §5

Test [4] relates to Lolium multiflorum (LOLMU). As to the method:
as §1, §2, §4, §3

[5] abbreviates: 25 g/ha, RME (0.25%) + AMS (3.3 g/l).
[6] abbreviates: 50 g/ha, RME (0.25%) + AMS (3.3 g/l).
Where [7] appears, read: 12.5 g/ha, RME (0.25%) + AMS (3.3 g/l).
Where [8] appears, read: 50 g/ha, RME (0.25%) + AMS (0.33 g/l).
[9] abbreviates: 50 g/ha, RME (0.25%) + AMS (1 g/l).

`CCc1cc(Br)cc(C)c1C1=C(O)C2(CCC(OC)CC2)NC1=O` (centres unmarked) [I-1-a-1]: the Activity in test [1] (25 g/ha, RME (0.25%)) is reported as 30%; in test [1] (setting [5]), 50%; in test [1] (50 g/ha, RME (0.25%)), 40%; in test [1] (setting [6]) it was 50%.
In the case of `CCc1cc(Br)cc(Cl)c1C1=C(O)C(C)(C2CC2)NC1=O` (centres unmarked) [I-1-a-2], the Activity in test [1] (12.5 g/ha, RME (0.25%)) came out at 5%; in test [1] (setting [7]), 60%; in test [1] (25 g/ha, RME (0.25%)), 20%; in test [1] (setting [5]), 90%; in test [1] (50 g/ha, RME (0.25%)), 50%; in test [1] (setting [6]), 93%.
Turning to `CCc1cc(C)cc(OC)c1C1=C(O)C2CCCN2C1=O` (centres unmarked) [I-1-a-3], the Activity in test [1] (25 g/ha, RME (0.25%)) is given as 15%; in test [1] (setting [5]) it was 70%; in test [1] (50 g/ha, RME (0.25%)) it was 93%; in test [1] (setting [6]) it was 95%; in test [1] (100 g/ha, RME (0.25%)) it was 93%; in test [1] (100 g/ha, RME (0.25%) + AMS (3.3 g/l)) it was 99%.
With `CCc1cccc(CC)c1C1=C(O)[C@]2(CC[C@H](OC)CC2)NC1=O` [I-1-a-4], the Activity in test [2] (25 g/ha, RME (0.25%)) turned out to be 3%; in test [2] (setting [5]), 10%; in test [2] (50 g/ha, RME (0.25%)) it was 5%; in test [2] (setting [6]) it was 30%; in test [3] (25 g/ha, RME (0.25%)) it was 3%; in test [3] (setting [5]), 50%. In addition, the Activity in test [3] (50 g/ha, RME (0.25%)) came out at 5%; in test [3] (setting [6]), 70%; in test [4] (25 g/ha, RME (0.25%)), 2%; in test [4] (setting [5]) it was 75%; in test [4] (50 g/ha, RME (0.25%)) it was 5%; in test [4] (setting [6]) it was 90%.
For `CCCCO[C@@H]1CCC[C@]2(C1)NC(=O)C(c1c(C)cc(C)cc1C)=C2O` [I-1-a-5], the Activity in test [3] (25 g/ha, RME (0.25%)) was determined as 25%; in test [3] (25 g/ha, RME (0.25%) + AMS (0.33 g/l)), 50%; in test [3] (25 g/ha, RME (0.25%) + AMS (1 g/l)) it was 50%; in test [3] (setting [5]), 60%; in test [4] (50 g/ha, RME (0.25%)), 5%; in test [4] (setting [8]), 60%. Further, the Activity in test [4] (setting [9]) is listed as 93%; in test [4] (setting [6]), 95%.
For `CCc1cc(C)cc(Br)c1C1=C(O)C(C)(C)NC1=O` [I-1-a-6], the Activity stood at 50% in test [1] (12.5 g/ha, RME (0.25%)); 65% in test [1] (12.5 g/ha, RME (0.25%) + AMS (0.33 g/l)); 75% in test [1] (12.5 g/ha, RME (0.25%) + AMS (1 g/l)); 90% in test [1] (setting [7]); 5% in test [4] (50 g/ha, RME (0.25%)); 20% in test [4] (setting [8]). The Activity in test [4] (setting [9]) amounted to 50%; in test [4] (setting [6]), 65%.
For `CCc1cc(Cl)ccc1C1=C(OC(=O)C(C)C)C2(CCC(C)CC2)NC1=O` (centres unmarked) [I-1-b-1], the Activity in test [2] (25 g/ha, RME (0.25%)) is listed as 15%; in test [2] (setting [5]) it was 60%; in test [2] (50 g/ha, RME (0.25%)), 50%; in test [2] (setting [6]) it was 60%; in test [3] (25 g/ha, RME (0.25%)), 5%; in test [3] (setting [5]), 25%. Moreover, the Activity is recorded as 20% in test [3] (50 g/ha, RME (0.25%)); 75% in test [3] (setting [6]); 10% in test [4] (25 g/ha, RME (0.25%)); 25% in test [4] (setting [5]); 10% in test [4] (50 g/ha, RME (0.25%)); 75% in test [4] (setting [6]).
